In the CheMixHub viscosity set:

Assay: xn = mol fraction of the nth substance listed

C1CCCCC1 + c1ccccc1
Settings | viscosity [mPa·s]
293.15 K, 101 kPa, x2 = 0.094 | 0.893
293.15 K, 101 kPa, x2 = 0.251 | 0.762
293.15 K, 101 kPa, x2 = 0.418 | 0.684
293.15 K, 101 kPa, x2 = 0.582 | 0.649
293.15 K, 101 kPa, x2 = 0.736 | 0.628
293.15 K, 101 kPa, x2 = 0.891 | 0.636
293.15 K, 101.32 kPa, x1 = 0.069 | 0.634
293.15 K, 101.33 kPa, x1 = 0.4 | 0.6789
293.65 K, 101.33 kPa, x1 = 0.1 | 0.6528
293.85 K, 101.33 kPa, x1 = 0.3 | 0.6581
294.35 K, 101.33 kPa, x1 = 0.7 | 0.7579
294.55 K, 101.33 kPa, x1 = 0.85 | 0.8416
294.85 K, 101.33 kPa, x1 = 0.6 | 0.7104
296.05 K, 101.33 kPa, x1 = 0.2 | 0.631
298 K, 101 kPa, x1 = 0.077 | 0.654
298 K, 101 kPa, x1 = 0.1226 | 0.654
298 K, 101 kPa, x1 = 0.1659 | 0.657
298 K, 101 kPa, x1 = 0.1692 | 0.66
298 K, 101 kPa, x1 = 0.2368 | 0.665
298 K, 101 kPa, x1 = 0.2613 | 0.669
298 K, 101 kPa, x1 = 0.2942 | 0.678
298 K, 101 kPa, x1 = 0.2951 | 0.674
298 K, 101 kPa, x1 = 0.6686 | 0.787
298.1 K, 101 kPa, x1 = 0.2 | 0.581
298.1 K, 101 kPa, x1 = 0.4 | 0.588
298.1 K, 101 kPa, x1 = 0.5 | 0.606
298.1 K, 101 kPa, x1 = 0.6 | 0.629
298.1 K, 101 kPa, x1 = 0.8 | 0.702
298.15 K, 100 kPa, x2 = 0.2504 | 0.7321
298.15 K, 100 kPa, x2 = 0.4997 | 0.6299
298.15 K, 100 kPa, x2 = 0.7497 | 0.575
298.15 K, 101 kPa, x1 = 0.0407 | 0.5938
298.15 K, 101 kPa, x1 = 0.0977 | 0.5871
298.15 K, 101 kPa, x1 = 0.1489 | 0.5839
298.15 K, 101 kPa, x1 = 0.1991 | 0.581
298.15 K, 101 kPa, x1 = 0.2609 | 0.5691
298.15 K, 101 kPa, x1 = 0.3011 | 0.5852
298.15 K, 101 kPa, x1 = 0.3095 | 0.574
298.15 K, 101 kPa, x1 = 0.3586 | 0.5843
298.15 K, 101 kPa, x1 = 0.3991 | 0.5953
298.15 K, 101 kPa, x1 = 0.4089 | 0.5884
298.15 K, 101 kPa, x1 = 0.4513 | 0.6073
298.15 K, 101 kPa, x1 = 0.4887 | 0.5861
298.15 K, 101 kPa, x1 = 0.4987 | 0.6127
298.15 K, 101 kPa, x1 = 0.5798 | 0.6263
298.15 K, 101 kPa, x1 = 0.5965 | 0.6256
298.15 K, 101 kPa, x1 = 0.6017 | 0.6403
298.15 K, 101 kPa, x1 = 0.6481 | 0.6489
298.15 K, 101 kPa, x1 = 0.6986 | 0.6783
298.15 K, 101 kPa, x1 = 0.7128 | 0.6954
298.15 K, 101 kPa, x1 = 0.8006 | 0.7301
298.15 K, 101 kPa, x1 = 0.8959 | 0.7929
298.15 K, 101 kPa, x1 = 0.9313 | 0.8219
298.15 K, 101 kPa, x1 = 0.9638 | 0.8484
298.15 K, 101 kPa, x2 = 0.0136 | 0.8732
298.15 K, 101 kPa, x2 = 0.1 | 0.7978
298.15 K, 101 kPa, x2 = 0.1043 | 0.8022
298.15 K, 101 kPa, x2 = 0.2 | 0.734
298.15 K, 101 kPa, x2 = 0.2011 | 0.7423
298.15 K, 101 kPa, x2 = 0.203 | 0.7292
298.15 K, 101 kPa, x2 = 0.2438 | 0.7115
298.15 K, 101 kPa, x2 = 0.3015 | 0.6869
298.15 K, 101 kPa, x2 = 0.31 | 0.6772
298.15 K, 101 kPa, x2 = 0.4 | 0.641
298.15 K, 101 kPa, x2 = 0.4038 | 0.6514
298.15 K, 101 kPa, x2 = 0.441 | 0.6283
298.15 K, 101 kPa, x2 = 0.5005 | 0.6313
298.15 K, 101 kPa, x2 = 0.549 | 0.6011
298.15 K, 101 kPa, x2 = 0.6 | 0.593
298.15 K, 101 kPa, x2 = 0.6032 | 0.6107
298.15 K, 101 kPa, x2 = 0.611 | 0.595
298.15 K, 101 kPa, x2 = 0.7006 | 0.5985
298.15 K, 101 kPa, x2 = 0.733 | 0.5877
298.15 K, 101 kPa, x2 = 0.7848 | 0.574
298.15 K, 101 kPa, x2 = 0.7996 | 0.6
298.15 K, 101 kPa, x2 = 0.8 | 0.587
298.15 K, 101 kPa, x2 = 0.883 | 0.5923
298.15 K, 101 kPa, x2 = 0.9011 | 0.609
298.15 K, 101.33 kPa, x1 = 0.0984 | 0.582
298.15 K, 101.33 kPa, x1 = 0.1986 | 0.576
298.15 K, 101.33 kPa, x1 = 0.3009 | 0.579
298.15 K, 101.33 kPa, x1 = 0.4008 | 0.589
298.15 K, 101.33 kPa, x1 = 0.4989 | 0.609
298.15 K, 101.33 kPa, x1 = 0.552 | 0.623
298.15 K, 101.33 kPa, x1 = 0.6007 | 0.639
298.15 K, 101.33 kPa, x1 = 0.6478 | 0.653
298.15 K, 101.33 kPa, x1 = 0.7475 | 0.699
298.15 K, 101.33 kPa, x1 = 0.8011 | 0.733
298.15 K, 101.33 kPa, x1 = 0.9022 | 0.803
298.15 K, 101.33 kPa, x2 = 0.1282 | 0.7622
298.15 K, 101.33 kPa, x2 = 0.15 | 0.7725
298.15 K, 101.33 kPa, x2 = 0.2174 | 0.7122
298.15 K, 101.33 kPa, x2 = 0.2438 | 0.7115
298.15 K, 101.33 kPa, x2 = 0.3364 | 0.6599
298.15 K, 101.33 kPa, x2 = 0.35 | 0.6571
298.15 K, 101.33 kPa, x2 = 0.4874 | 0.6124
298.15 K, 101.33 kPa, x2 = 0.5 | 0.612
298.15 K, 101.33 kPa, x2 = 0.549 | 0.6011
298.15 K, 101.33 kPa, x2 = 0.647 | 0.5879
298.15 K, 101.33 kPa, x2 = 0.65 | 0.5853
298.15 K, 101.33 kPa, x2 = 0.7814 | 0.583
298.15 K, 101.33 kPa, x2 = 0.7848 | 0.574
298.15 K, 101.33 kPa, x2 = 0.9 | 0.5761
298.15 K, 101.33 kPa, x2 = 0.9033 | 0.5926
303.15 K, 101 kPa, x1 = 0.0989 | 0.5467
303.15 K, 101 kPa, x1 = 0.1983 | 0.5433
303.15 K, 101 kPa, x1 = 0.3019 | 0.5485
303.15 K, 101 kPa, x1 = 0.3998 | 0.5602
303.15 K, 101 kPa, x1 = 0.5035 | 0.5792
303.15 K, 101 kPa, x1 = 0.6015 | 0.6041
303.15 K, 101 kPa, x1 = 0.7002 | 0.6378
303.15 K, 101 kPa, x1 = 0.7987 | 0.6822
303.15 K, 101 kPa, x1 = 0.8977 | 0.7447
303.15 K, 101 kPa, x2 = 0.094 | 0.755
303.15 K, 101 kPa, x2 = 0.1043 | 0.7412
303.15 K, 101 kPa, x2 = 0.2011 | 0.6892
303.15 K, 101 kPa, x2 = 0.251 | 0.658
303.15 K, 101 kPa, x2 = 0.3015 | 0.6418
303.15 K, 101 kPa, x2 = 0.4038 | 0.6099
303.15 K, 101 kPa, x2 = 0.418 | 0.594
303.15 K, 101 kPa, x2 = 0.5005 | 0.5913
303.15 K, 101 kPa, x2 = 0.582 | 0.566
303.15 K, 101 kPa, x2 = 0.6032 | 0.5734
303.15 K, 101 kPa, x2 = 0.7006 | 0.5632
303.15 K, 101 kPa, x2 = 0.736 | 0.55
303.15 K, 101 kPa, x2 = 0.7996 | 0.5634
303.15 K, 101 kPa, x2 = 0.891 | 0.555
303.15 K, 101 kPa, x2 = 0.9011 | 0.5689
303.45 K, 101.33 kPa, x1 = 0.7 | 0.6645
303.55 K, 101.33 kPa, x1 = 0.5 | 0.6035
303.65 K, 101.33 kPa, x1 = 0.4 | 0.5874
303.75 K, 101.33 kPa, x1 = 0.3 | 0.5794
304.25 K, 101.33 kPa, x1 = 0.85 | 0.7288
304.55 K, 101.33 kPa, x1 = 0.6 | 0.6189
306.35 K, 101.33 kPa, x1 = 0.2 | 0.5538
308.15 K, 101 kPa, x2 = 0.1043 | 0.6842
308.15 K, 101 kPa, x2 = 0.2011 | 0.6409
308.15 K, 101 kPa, x2 = 0.3015 | 0.5971
308.15 K, 101 kPa, x2 = 0.4038 | 0.5697
308.15 K, 101 kPa, x2 = 0.5005 | 0.5535
308.15 K, 101 kPa, x2 = 0.6032 | 0.537
308.15 K, 101 kPa, x2 = 0.7006 | 0.5274
308.15 K, 101 kPa, x2 = 0.7996 | 0.5266
308.15 K, 101 kPa, x2 = 0.9011 | 0.5325
312.15 K, 101.33 kPa, x1 = 0.1 | 0.5154
312.65 K, 101.33 kPa, x1 = 0.4 | 0.5272
312.65 K, 101.33 kPa, x1 = 0.5 | 0.5397
312.75 K, 101.33 kPa, x1 = 0.3 | 0.5184
312.85 K, 101.33 kPa, x1 = 0.6 | 0.5535
313.15 K, 101 kPa, x2 = 0.094 | 0.651
313.15 K, 101 kPa, x2 = 0.1043 | 0.6342
313.15 K, 101 kPa, x2 = 0.2011 | 0.5944
313.15 K, 101 kPa, x2 = 0.251 | 0.574
313.15 K, 101 kPa, x2 = 0.3015 | 0.5574
313.15 K, 101 kPa, x2 = 0.4038 | 0.5315
313.15 K, 101 kPa, x2 = 0.418 | 0.53
313.15 K, 101 kPa, x2 = 0.5005 | 0.5172
313.15 K, 101 kPa, x2 = 0.582 | 0.499
313.15 K, 101 kPa, x2 = 0.6032 | 0.5037
313.15 K, 101 kPa, x2 = 0.7006 | 0.494
313.15 K, 101 kPa, x2 = 0.736 | 0.489
313.15 K, 101 kPa, x2 = 0.7996 | 0.4952
313.15 K, 101 kPa, x2 = 0.891 | 0.49
313.15 K, 101 kPa, x2 = 0.9011 | 0.4973
313.25 K, 101.33 kPa, x1 = 0.2 | 0.5122
314.15 K, 101.33 kPa, x1 = 0.85 | 0.6325
315.75 K, 101.33 kPa, x1 = 0.7 | 0.5676
322.55 K, 101.33 kPa, x1 = 0.6 | 0.5006
322.85 K, 101.33 kPa, x1 = 0.85 | 0.567
322.95 K, 101.33 kPa, x1 = 0.1 | 0.4571
322.95 K, 101.33 kPa, x1 = 0.4 | 0.4739
323.15 K, 100 kPa, x2 = 0.2504 | 0.5258
323.15 K, 100 kPa, x2 = 0.4997 | 0.4555
323.15 K, 100 kPa, x2 = 0.7497 | 0.4303
323.15 K, 101 kPa, x2 = 0.094 | 0.567
323.15 K, 101 kPa, x2 = 0.251 | 0.506
323.15 K, 101 kPa, x2 = 0.418 | 0.471
323.15 K, 101 kPa, x2 = 0.582 | 0.445
323.15 K, 101 kPa, x2 = 0.736 | 0.442
323.15 K, 101 kPa, x2 = 0.891 | 0.438
